According to PubChem BioAssay AID1259407 (Chemical Carcinogenesis Research Information System (CCRIS), 2018):
Activity calls are given as the source filed them. The rule behind the calls is not given here.

Test system: CCRIS mutagenicity, Ames/micronucleus/aberration tests
Assay: CCRIS mutagenicity studies

With ON=C1CCCCC1 the mutagenic call (Test System: AMES SALMONELLA TYPHIMURIUM, Strain/Indicator: TA97, Metabolic Activation: HAMSTER, LIVER, S-9, AROCLOR 1254 (30%), Method: PREINCUBATION) was “inactive; negative”, the mutagenic call (Test System: AMES SALMONELLA TYPHIMURIUM, Strain/Indicator: TA97, Metabolic Activation: NONE, Method: PREINCUBATION) was “inactive; negative” and the mutagenic call (Test System: AMES SALMONELLA TYPHIMURIUM, Strain/Indicator: TA97, Metabolic Activation: RAT, LIVER, S-9, AROCLOR 1254 (30%), Method: PREINCUBATION) was “inactive; negative”. For the same molecule, the mutagenic call (Test System: AMES SALMONELLA TYPHIMURIUM, Strain/Indicator: TA98, Metabolic Activation: HAMSTER, LIVER, S-9, AROCLOR 1254 (30%), Method: PREINCUBATION) was “inactive; negative”, the mutagenic call (Test System: AMES SALMONELLA TYPHIMURIUM, Strain/Indicator: TA98, Metabolic Activation: HAMSTER, LIVER, S-9, AROCLOR 1254, Method: STANDARD PLATE) was “inactive; negative” and the mutagenic call (Test System: AMES SALMONELLA TYPHIMURIUM, Strain/Indicator: TA98, Metabolic Activation: NONE, Method: PREINCUBATION) was “inactive; negative”. The mutagenic call (Test System: AMES SALMONELLA TYPHIMURIUM, Strain/Indicator: TA98, Metabolic Activation: NONE, Method: STANDARD PLATE) was “inactive; negative”, the mutagenic call (Test System: AMES SALMONELLA TYPHIMURIUM, Strain/Indicator: TA98, Metabolic Activation: RAT, LIVER, S-9, AROCLOR 1254 (30%), Method: PREINCUBATION) was “inactive; negative” and the mutagenic call (Test System: AMES SALMONELLA TYPHIMURIUM, Strain/Indicator: TA98, Metabolic Activation: RAT, LIVER, S-9, AROCLOR 1254, Method: STANDARD PLATE) was “inactive; negative”. The mutagenic call (Test System: AMES SALMONELLA TYPHIMURIUM, Strain/Indicator: TA100, Metabolic Activation: HAMSTER LIVER S-9, AROCLOR 1254, Method: PREINCUBATION) was “inactive; negative”, the mutagenic call (Test System: AMES SALMONELLA TYPHIMURIUM, Strain/Indicator: TA100, Metabolic Activation: HAMSTER, LIVER, S-9, AROCLOR 1254 (30%), Method: PREINCUBATION) was “inactive; negative” and the mutagenic call (Test System: AMES SALMONELLA TYPHIMURIUM, Strain/Indicator: TA100, Metabolic Activation: HAMSTER, LIVER, S-9, AROCLOR 1254, Method: STANDARD PLATE) was “inactive; negative”. For the same molecule, the mutagenic call (Test System: AMES SALMONELLA TYPHIMURIUM, Strain/Indicator: TA100, Metabolic Activation: NONE, Method: PREINCUBATION) was “inactive; negative”, the mutagenic call (Test System: AMES SALMONELLA TYPHIMURIUM, Strain/Indicator: TA100, Metabolic Activation: NONE, Method: STANDARD PLATE) was “inactive; negative” and the mutagenic call (Test System: AMES SALMONELLA TYPHIMURIUM, Strain/Indicator: TA100, Metabolic Activation: RAT, LIVER, S-9, AROCLOR 1254 (30%), Method: PREINCUBATION) was “inactive; negative”. The mutagenic call (Test System: AMES SALMONELLA TYPHIMURIUM, Strain/Indicator: TA100, Metabolic Activation: RAT, LIVER, S-9, AROCLOR 1254, Method: STANDARD PLATE) was “inactive; negative”, the mutagenic call (Test System: AMES SALMONELLA TYPHIMURIUM, Strain/Indicator: TA1535, Metabolic Activation: HAMSTER LIVER S-9, AROCLOR 1254, Method: PREINCUBATION) was “active; positive” and the mutagenic call (Test System: AMES SALMONELLA TYPHIMURIUM, Strain/Indicator: TA1535, Metabolic Activation: HAMSTER, LIVER, S-9, AROCLOR 1254 (5,10 OR 30%), Method: PREINCUBATION) was “active; positive”. For the same molecule, the mutagenic call (Test System: AMES SALMONELLA TYPHIMURIUM, Strain/Indicator: TA1535, Metabolic Activation: HAMSTER, LIVER, S-9, AROCLOR 1254, Method: STANDARD PLATE) was “inactive; negative”, the mutagenic call (Test System: AMES SALMONELLA TYPHIMURIUM, Strain/Indicator: TA1535, Metabolic Activation: NONE, Method: STANDARD PLATE) was “inactive; negative” and the mutagenic call (Test System: AMES SALMONELLA TYPHIMURIUM, Strain/Indicator: TA1535, Metabolic Activation: RAT, LIVER, S-9, AROCLOR 1254 (30%), Method: PREINCUBATION) was “inactive; negative”. The mutagenic call (Test System: AMES SALMONELLA TYPHIMURIUM, Strain/Indicator: TA1535, Metabolic Activation: RAT, LIVER, S-9, AROCLOR 1254, Method: STANDARD PLATE) was “inactive; negative”, the mutagenic call (Test System: AMES SALMONELLA TYPHIMURIUM, Strain/Indicator: TA1537, Metabolic Activation: HAMSTER, LIVER, S-9, AROCLOR 1254, Method: STANDARD PLATE) was “inactive; negative” and the mutagenic call (Test System: AMES SALMONELLA TYPHIMURIUM, Strain/Indicator: TA1537, Metabolic Activation: NONE, Method: STANDARD PLATE) was “inactive; negative”. The mutagenic call (Test System: AMES SALMONELLA TYPHIMURIUM, Strain/Indicator: TA1537, Metabolic Activation: RAT, LIVER, S-9, AROCLOR 1254, Method: STANDARD PLATE) was “inactive; negative”, the mutagenic call (Test System: AMES SALMONELLA TYPHIMURIUM, Strain/Indicator: TA1538, Metabolic Activation: HAMSTER, LIVER, S-9, AROCLOR 1254, Method: STANDARD PLATE) was “inactive; negative” and the mutagenic call (Test System: AMES SALMONELLA TYPHIMURIUM, Strain/Indicator: TA1538, Metabolic Activation: NONE, Method: STANDARD PLATE) was “inactive; negative”. The mutagenic call (Test System: AMES SALMONELLA TYPHIMURIUM, Strain/Indicator: TA1538, Metabolic Activation: RAT, LIVER, S-9, AROCLOR 1254, Method: STANDARD PLATE) was “inactive; negative”, the mutagenic call (Test System: MOUSE LYMPHOMA, Strain/Indicator: L5178Y (TK+/TK-), Metabolic Activation: NONE, Method: SUSPENSION/PLATE) was “active; positive. reevaluation of results: positive” and the mutagenic call (Test System: MOUSE LYMPHOMA, Strain/Indicator: L5178Y (TK+/TK-), Metabolic Activation: RAT, LIVER, S-9, AROCLOR 1254, Method: SUSPENSION/PLATE) was “inactive; negative. reevaluation of results: negative”.

N[C@@H](CCC(=O)N[C@@H](CS/C(Cl)=C\Cl)C(=O)NCC(=O)O)C(=O)O was tested, and the mutagenic call (Test System: AMES SALMONELLA TYPHIMURIUM, Strain/Indicator: TA2638, Metabolic Activation: NONE, Method: PREINCUBATION) was “active; positive”, the mutagenic call (Test System: AMES SALMONELLA TYPHIMURIUM, Strain/Indicator: TA2638, Metabolic Activation: RAT, KIDNEY, CYTOSOL, Method: PREINCUBATION) was “active; positive” and the mutagenic call (Test System: AMES SALMONELLA TYPHIMURIUM, Strain/Indicator: TA2638, Metabolic Activation: RAT, KIDNEY, MICROSOMES, Method: PREINCUBATION) was “active; positive”. The mutagenic call (Test System: AMES SALMONELLA TYPHIMURIUM, Strain/Indicator: TA2638, Metabolic Activation: RAT, KIDNEY, MITOCHONDRIA, Method: PREINCUBATION) was “active; positive”.
